Results from US20230331739A1, “INDOLO HEPTAMYL OXIME ANALOG CRYSTAL AS PARP INHIBITOR AND METHOD FOR PREPARING SAME” (CHIA TAI TIANQING PHARMACEUTICAL GROUP CO., LTD., priority 2020, published 2023).

System: PARylation in Lovo cells
Experiment: PARylation inhibition in Lovo cells
Assay type: cell-based
Settings: Homo sapiens, 25 mM H2O2
Protocol: Experimental materials: test compounds, F12K medium, Lovo cells, Anti-Poly (ADP-ribose) mouse monoclonal antibody; FITC-labeled goat anti-mouse IgG; hydrogen peroxide; DAPI; PBS; methanol; acetone; Tween-20; skimmed milk powder; Envision Multimode Plate Reader.
Day One: Lovo cells were seeded on a plate at 60,000 cells/well, and then incubated overnight at 37° C./5% CO2.
1. Washing solution: Tween-20 was added to 1×PBS, and the final concentration of Tween-20 was 0.05%.
2. Blocking solution: Skimmed milk powder was added to the washing solution, and the final concentration of the skimmed milk powder was 5%.
3. Cell immobilization solution: Methanol and acetone were mixed in a ratio of 7:3.
Preparation of test compounds: Compound intermediate plate 1: The compound was diluted to final concentrations of 10 μM to 0.13 nM with DMSO and PBS, and the concentration of DMSO was 1%; Compound intermediate plate 2: The compound was diluted to final concentrations of 10 μM to 0.13 nM with DMSO and PBS containing 50 mM hydrogen peroxide, and the concentration of DMSO was 1%.
1. […]
10. […] After removal of the liquid, corresponding fluorescence values were read on Envision: FITC: 480 nm and 530 nm; DAPI: 360 nm and 460 nm. […]

SMILES: C[C@]1(c2ccc(-c3[nH]c4cc(F)cc5c4c3CONC5=O)cc2)CCCN1 [Compound 1]
- IC50: 19 nM
